Tests used:
bEnd.3 cells [1] = assay: Cellular uptake by laser scanning confocal microscopy (LSCM); conditions: FITC-labeled; confluent bEnd.3 cells; 1 h treatment; formalin-fixed; LSCM 488 laser; qualitative, versus untreated control cells
Procedure: The bEnd.3 cells were treated at confluence with FITC-labeled products dissolved in DMEM and incubated for 1 h (the appropriate incubation time for dendrons with this type of cell line). The cells were then fixed with 3.7% (v/v) formalin, and analyzed by LSCM (Leica TCS SP5, UK), using a 488-visible laser source.

bEnd.3 cells [2] = assay: LDH release cytotoxicity assay; conditions: confluent bEnd.3 cells; concentrations up to 400 μM; 24 and 48 h; absorbance 492 nm; relative to complete lysis control (100% lysis); mean of n = 6
Procedure: The bEnd.3 cells were cultured, according to ATCC-product sheet instruction, in DMEM high glucose medium with L-pyruvate, containing 10 % (v/v) fetal bovine serum and 1% (v/v) of 500 U/ml Penicillin/Streptomycin (Gibco, Germany). Cells were seeded at a density of 5 × 10^4 cells per cm^2 in 24-well plates then incubated at 37°C and 5% CO2 and the culture media was replaced every 3 days.
Experiments were performed when cells reached confluence. A range of concentrations (25, 50, 100, 150, 200, 300, and 400 μM) of each AMT-competent G0-, G1-dendron, and RMT-competent AEP-dendron were used in each experiment.
Lactate dehydrogenase (LDH) was measured using Promega CytoTox96® non-radioactive cytotoxicity assay kit (UK) after 24 and 48 h incubation. Absorbance was read spectrophotometrically at 492 nm and converted to a percentage of the total LDH released from the positive control (cells subjected to complete lysis) for 6 replicates.

bEnd.3 cells [3] = assay: Cellular uptake by flow cytometry; conditions: FITC-labeled carrier in DMEM; confluent bEnd.3 cells; 1 h incubation; flow cytometry FL1-H channel; in comparison to negative control (untreated cells)
Procedure: The bEnd.3 cells were cultured and treated at confluence with 100 μL FITC-labeled products dissolved in DMEM for 1 h. The cells were washed with phosphate buffer solution twice and trypsinised and then harvested to be analyzed using BD C6 sampler flow cytometer (BD Accuri C6, Bioscience, UK). Samples of cells without treatment were also included as a control, and the analysis was carried out through the FL1-H channel for FITC detection.

Molecule | cellular uptake (green fluorescence inside the cells) (bEnd.3 cells [1]) | cell membrane lysis (LDH release) as % of positive control (bEnd.3 cells [2]) [%] | cellular uptake (bEnd.3 cells [3]) [%]
O=C1OC2(c3ccc(O)cc3Oc3cc(O)ccc32)c2ccc(N=C=S)cc21 [FITC, fluorescein-5-isothiocyanate, reference compound] | negative results |  | 
H-KLRKLRKRLLR-NH2 (C-terminus assumed) [AEP-dendron] |  | < 10 | 90.7
NCCCC[C@H](N)C(=O)N[C@@H](Cc1ccccc1)C(N)=O [G0-dendron] | successful cellular uptake | < 10 | 38.7
